Tests used:
[1] = test system: HCT116 p53^+/+ cancer cells; assay: Autophagy (CYTO-ID staining, confocal); assay type: cell-based, human; settings: 3.125 μM, 40 h
Procedure: (§1) FIG. 18. The effects of [L2Cu3]^6+, [L2Zn3]^6+ and [L2Mn3]^6+ on cellular vacuole formation and autophagy in the HCT116 p53^+/+ cancer cells. Representative confocal images are shown of HCT116 p53^+/+ cancer cells following 40 h treatment with vehicle control or 3.125 μM [L2Cu3]^6+, [L2Zn3]^6+, or [L2Mn3]^6+.
(§2) Autophagy studies: The effects of 3.125 μM [L2Cu3]^6+, [L2Zn3]^6+ and [L2Mn3]^6+ treatments (40 h) on the induction of cellular vacuoles and autophagy in the HCT116 p53^−/−, HCT116 p53^+/+ and ARPE19 cells are presented in FIGS. 17-19 with representative cell images shown. […] In the ARPE19 cells, levels of autophagy were low with all treatments and similar to basal levels in control-treated cells (FIG. 19).

[2] = test system: panel of human cancer (HT-29, DLD-1, HCT116 p53^+/+ and p53^−/−, PSN1, MiaPaCa2, BxPC3, A549, H460, GBM1) and non-cancer cell lines (ARPE-19, MCF10A, NP1); assay: Chemosensitivity of a panel of human cancer and non-cancer cell lines (MTT, 96 h); assay type: cell-based; settings: cancer versus non-cancer cells
Procedure: FIG. 7. Chemosensitivity response of a panel of human cancer and non-cancer cell lines to 96 h continuous exposure to self-assembling test compounds. a, The potency of compounds tested against cancer (HT-29, DLD-1, HCT116 p53^+/+ and […], PSN1, MiaPaCa2, BxPC3, A549, H460 and GBM1) and non-cancer cells (ARPE-19, MCF10A and NP1). Each value represents the mean IC50±standard deviation from a minimum of three independent experiments. b,c, The selectivity index (SI) for [L2Cu3]^6+ (b) and [L2Zn3]^6+ (c) for the indicated cancer cell lines; SI is defined as the mean IC50 against the particular non-cancer cell line model divided by the mean IC50 against the particular cancer cell line. […] As the SI value is calculated using the mean IC50 values, experimental error is not included in these figures. d,e, IC50 values for the clinically approved platinates (cisplatin, oxaliplatin and carboplatin) and [L2Mn3]^6+ and the corresponding SI results.
All cell lines used were maintained at low passage in antibiotic-free media and were obtained from ATCC (LGC Standards, Middlesex, UK) unless otherwise stated (Methods). HT29, DLD-1, HCT116 p53^+/+ and HCT116 p53^−/− are all colorectal adenocarcinoma cell lines derived from different individuals and harbor different combinations of oncogenic lesions (except for the HCT116 isogenic cancer cell clones that are genetically identical except for p53 status). PSN-1, BxPC-3 and MiaPaCa2 are pancreatic carcinoma cell lines and A549 and H460 are lung carcinoma cell lines. HT29, DLD-1, PSN-1, BxPC-3, A549 and H460 cell lines were cultured in RPMI-1640 growth media (Sigma) containing 2 mM L-glutamine, 1 mM sodium pyruvate and 10% fetal bovine serum (FBS). HCT116 (p53^+/+ and p53^−/−) and MiaPaCa2 cell lines were cultured in Dulbecco's Modified Eagle's Medium (Sigma), 2 mM L-glutamine and 10% FBS. The ARPE-19 retinal epithelial non-cancer cell line (Dunn et al., 1996) was cultured in DMEM/F12 media (Gibco), 2 mM L-glutamine, 1 mM sodium pyruvate and 10% FBS. The MCF10A non-cancerous human breast epithelial cell line was cultured in Minimal Essential Media Eagle (Sigma), 2 mM L-glutamine, 1 mM sodium pyruvate, 10% FBS and 1×non-essential amino acids (NEAA). NP1 and GBM1 cells were cultured on plasticware coated with poly-L-ornithine (5 μg/ml) and laminin (2.4 μg/ml) (Polson et al., 2018; Da Silva et al., 2019). […]
[L2M3]^6+ and all the other self-assembling complexes were freshly formed by adding DMSO to individual components mixing together by pipetting. […] Media and MTT were removed and formazan crystals were dissolved in 150 μl of DMSO and the absorbance of the resulting solution determined at 540 nm. […]

ARPE19 non-cancer cells = assay: Cellular ATP levels; assay type: cell-based, human; settings: 100 μM, 20 h
Procedure: FIG. 20. The effects of [L2Cu3]^6+, [L2Zn3]^6+ and [L2Mn3]^6+ on cellular ATP levels in the ARPE19 non-cancer and HCT116 p53^+/+ cancer cells. The effects of 20 h treatment with the indicated concentrations of [L2Cu3]^6+, [L2Zn3]^6+, or [L2Mn3]^6+ on total cellular levels of ATP compared to levels in vehicle control-treated ARPE19 or HCT116^+/+ cells. n=3 biological repeats, students t-test (p values).
Cellular ATP studies: The effects of 20 h treatment with a range of different concentrations of [L2Cu3]^6+, [L2Zn3]^6+ and [L2Mn3]^6+ on total cellular ATP levels in HCT116 p53^+/+ and ARPE19 cells are presented in FIG. 20. Differential effects are observed depending on the metal in the complex, with [L2Mn3]^6+ having the most profound effects on both the HCT116 p53^+/+ cancer and ARPE19 non-cancer cells. 6.25 μM [L2Mn3]^6+ treatment for 20 h reduced ATP levels in the HCT116 p53^+/+ cancer cells to <50% with ATP levels declining less in the ARPE19 non-cancer cells but reaching ˜40% with 100 μM [L2Mn3]^6+ treatment. […] Effects of [L2Cu3]^6+ on ATP levels was much less, with ATP levels in the HCT116 cells reduced to <50% only at the highest concentration of 100 μM.

[3] = test system: HCT116 p53^−/− cancer cells; assay: Autophagy (CYTO-ID staining, confocal); assay type: cell-based, human; settings: 3.125 μM, 40 h
Procedure: as §1, with “17.” for “18.”, “p53^−/−” for “p53^+/+”
as §2

[4] = Phosphatase activity: hydrolysis of 4-nitrophenyl phosphate; settings: UV-Vis spectroscopy, after 24 hrs
Excerpt: Only [L2Zn3(PO4)]^3+ was observed, coupled with a rapid yellowing of the solution due to the formation of 4-nitrophenolate.
The rate of substrate hydrolysis is also dependent upon the metal used in the self-assembly process.

Question: Which induction of autophagy [1] does the source give for `[Mn+2].[Mn+2].[Mn+2].c1ccc(-c2csc(NCCN(CCNc3nc(-c4ccccn4)cs3)CCNc3nc(-c4ccccn4)cs3)n2)nc1.c1ccc(-c2csc(NCCN(CCNc3nc(-c4ccccn4)cs3)CCNc3nc(-c4ccccn4)cs3)n2)nc1` [[L2Mn3]^6+] here?
Answer: The induction of autophagy was “evident”.

Question: And the “preferential selectivity towards cancer cells” value [2]?
Answer: The value was roughly 2 fold.

Question: What about the “ATP levels compared to vehicle control” value (ARPE19 non-cancer cells) of the same molecule?
Answer: Its value is roughly 40%.

Question: And the induction of autophagy [3]?
Answer: Its induction of autophagy is “most pronounced”.

Question: What about the “phosphate hydrolysed compared with the Zn^2+ species” value [4] of the same molecule?
Answer: Its value is “three times more phosphate”.

— US20230322815A1, “NOVEL COMPOUNDS AND THERAPEUTIC USES THEREOF” (University of Huddersfield, priority 2020, published 2023)
